Test systems include HCT-116 colon; HCT-15 colon; IGROV1 ovarian; K-562 leukemia; MALME-3M melanoma; MDA-MB-435; MOLT-4 leukemia; NCI-H226 lung; NCI/ADR-RES ovarian; OVCAR-3 ovarian; OVCAR-4 ovarian; PC-3 prostate; SK-MEL-2 melanoma; SK-MEL-28 melanoma; TK-10 renal; UACC-62 melanoma; MCF7 breast; RXF 393 renal; SR leukemia.
What all share (experiment): NCI anticancer screen, dose series, 48 h

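The compound was tested at five concentrations on cells cultured in 96-well plates, with a 48-hour exposure period. TGI marks complete inhibition of growth.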

These results are taken from PubChem BioAssay (NCI).

For the compound `COc1ccccc1C(=O)c1c(NCc2ccccc2)c(=O)c1=O`, the TGI with HCT-116 colon was > 100 µM; with HCT-15 colon, > 100 µM; in the assay on IGROV1 ovarian it was 95 µM; in the assay on K-562 leukemia, > 100 µM; in the assay on MALME-3M melanoma, 75.9 µM; in the assay on MDA-MB-435, > 100 µM. The TGI with MOLT-4 leukemia was 83.3 µM; in the assay with NCI-H226 lung, > 100 µM; with NCI/ADR-RES ovarian, > 100 µM; in the assay on OVCAR-3 ovarian it was > 100 µM; in the assay with OVCAR-4 ovarian it was > 100 µM; in the assay on PC-3 prostate, > 100 µM. The TGI is > 100 µM in the assay on SK-MEL-2 melanoma, 35.8 µM in the assay on SK-MEL-28 melanoma, > 100 µM in the assay with TK-10 renal and > 100 µM in the assay with UACC-62 melanoma.
For `COc1ccc(/C=C2\CCC(C)C3=C2N=c2s/c(=C/c4cccc(Br)c4)c(=O)n2C3c2ccc(OC)c(OC)c2)cc1OC` (configuration not stated), the TGI with HCT-116 colon, with HCT-15 colon, in the assay with IGROV1 ovarian, with K-562 leukemia, with MCF7 breast and in the assay on MDA-MB-435 was > 100 µM throughout. Also, the TGI in the assay with MOLT-4 leukemia, in the assay with OVCAR-4 ovarian, in the assay with PC-3 prostate, in the assay with RXF 393 renal, in the assay with SK-MEL-2 melanoma and in the assay on SK-MEL-28 melanoma was > 100 µM in each case. Further, the TGI with SR leukemia, in the assay on TK-10 renal and in the assay with UACC-62 melanoma was > 100 µM throughout.
On to `CC(C)/C(Cl)=N\OC(=O)Nc1cccc(Cl)c1`, for which the TGI in the assay on HCT-116 colon was 36.2 µM; in the assay on HCT-15 colon it was 31.3 µM; with IGROV1 ovarian, 35 µM; in the assay on K-562 leukemia, 4.7 µM; in the assay with MALME-3M melanoma, 24.1 µM; in the assay with MCF7 breast, 32 µM. The TGI is 7.88 µM in the assay on MOLT-4 leukemia; 38.9 µM with NCI-H226 lung; > 57 µM in the assay on NCI/ADR-RES ovarian; 10.8 µM in the assay with OVCAR-3 ovarian; 27 µM in the assay with OVCAR-4 ovarian; 29.7 µM with PC-3 prostate. For the same compound, the TGI worked out at 32.5 µM in the assay on RXF 393 renal; 30 µM with SK-MEL-2 melanoma; 35.4 µM in the assay on SK-MEL-28 melanoma; 7.22 µM in the assay on SR leukemia; 28.6 µM in the assay on TK-10 renal; 46.3 µM in the assay on UACC-62 melanoma.
On to `COc1cc(/C=c2\sc3n(c2=O)C(c2ccc(Cl)cc2)C2=C(CCCC2C)N=3)cc(OC)c1OC` (configuration not stated), for which the TGI in the assay on HCT-116 colon, in the assay on HCT-15 colon, with IGROV1 ovarian, in the assay with K-562 leukemia, in the assay on MCF7 breast and in the assay on MDA-MB-435 was > 100 µM in each case. Besides, the TGI in the assay on MOLT-4 leukemia, in the assay with PC-3 prostate, with RXF 393 renal, in the assay on SK-MEL-2 melanoma, with SK-MEL-28 melanoma and in the assay with SR leukemia was > 100 µM in each case. The TGI in the assay on TK-10 renal and in the assay with UACC-62 melanoma was > 100 µM each time.
Consider `BrC(c1cccc2ccccc12)c1cccc2ccccc12`, for which the TGI was 27.8 µM with HCT-116 colon; 42.5 µM in the assay with HCT-15 colon; 31.8 µM with IGROV1 ovarian; > 100 µM with K-562 leukemia; 21.1 µM in the assay with MALME-3M melanoma; 21.2 µM in the assay on MDA-MB-435. Moreover, the TGI in the assay on MOLT-4 leukemia is > 100 µM; in the assay with NCI-H226 lung, 33.5 µM; in the assay with NCI/ADR-RES ovarian, 44.2 µM; in the assay on OVCAR-3 ovarian, 24.2 µM; in the assay on OVCAR-4 ovarian it was 36.1 µM; with PC-3 prostate, 54.1 µM. Also, the TGI in the assay on RXF 393 renal was 27.9 µM; in the assay with SK-MEL-2 melanoma, 30.1 µM; in the assay with SK-MEL-28 melanoma, 44.6 µM; in the assay with SR leukemia, > 100 µM; in the assay on TK-10 renal it was > 100 µM; with UACC-62 melanoma, 27.7 µM.
Consider `CCOc1ccc2nc(NC(=O)C(=O)C(c3cnc4ccccc4n3)[N+](=O)[O-])sc2c1` (configuration not stated), for which the TGI with HCT-116 colon, with HCT-15 colon, in the assay with IGROV1 ovarian, in the assay with K-562 leukemia, with MALME-3M melanoma and in the assay with MCF7 breast was > 100 µM each time. For the same compound, the TGI in the assay on MOLT-4 leukemia, with NCI-H226 lung, in the assay with NCI/ADR-RES ovarian, in the assay on OVCAR-3 ovarian, in the assay with OVCAR-4 ovarian and in the assay with PC-3 prostate was > 100 µM throughout. In addition, the TGI in the assay with RXF 393 renal, in the assay with SK-MEL-2 melanoma, with TK-10 renal and with UACC-62 melanoma was > 100 µM throughout.
For `Cc1ccc2c(c1)-c1nc(N)c(C#N)c(-c3ccccc3)c1CCS2(=O)=O`, the TGI in the assay on HCT-116 colon was > 100 µM; in the assay on HCT-15 colon, > 100 µM; in the assay with IGROV1 ovarian it was > 100 µM; in the assay on K-562 leukemia, > 100 µM; in the assay with MALME-3M melanoma it was 87.3 µM; with MDA-MB-435, > 100 µM. Further, the TGI was 78.5 µM with NCI-H226 lung; > 100 µM in the assay with NCI/ADR-RES ovarian; > 100 µM in the assay with OVCAR-3 ovarian; 41.8 µM with OVCAR-4 ovarian; > 100 µM in the assay on PC-3 prostate; > 100 µM in the assay with SK-MEL-2 melanoma. Besides, the TGI in the assay with SK-MEL-28 melanoma was > 100 µM; in the assay with TK-10 renal, 61 µM; with UACC-62 melanoma, > 100 µM.
With `CN(C)c1nc(Cl)c2c(-c3ccccc3)c(-c3ccccc3)oc2n1`, the TGI with HCT-116 colon, in the assay on HCT-15 colon, with IGROV1 ovarian, in the assay on K-562 leukemia, in the assay with MCF7 breast and with MDA-MB-435 was > 100 µM throughout. Also, the TGI with MOLT-4 leukemia was 96.2 µM; in the assay with NCI-H226 lung it was > 100 µM; in the assay on NCI/ADR-RES ovarian, > 100 µM; with OVCAR-4 ovarian, > 100 µM; in the assay with RXF 393 renal it was 45.2 µM; with SK-MEL-28 melanoma, > 100 µM. The TGI in the assay on SR leukemia, in the assay on TK-10 renal and in the assay with UACC-62 melanoma was > 100 µM throughout.
